Experimental data from ChEMBL document CHEMBL1134018, “Study of aminoglycoside-nucleic acid interactions by an HPLC method” (Bioorg Med Chem Lett, 2001).

Key:
Nucleic Acid [1] = experiment: Percent of interaction with wheat germ tRNA (type V) at a concentration of 35 uM; type: functional; details: Triticum aestivum
Nucleic Acid [2] = experiment: Percent of interaction with calf thymus DNA (activated type XV) at a concentration of 35 uM; type: functional; details: Bos taurus

| SMILES | tRNA peak exclusion (Nucleic Acid [1]) [%] | DNA peak exclusion (Nucleic Acid [2]) [%] |
| --- | --- | --- |
| CCN[C@@H]1C[C@H](N)[C@@H](O[C@H]2OC(CN)=CC[C@H]2N)[C@H](O)[C@H]1O[C@H]1OC[C@](C)(O)[C@H](NC)[C@H]1O | 55.1 | 68.8 |
| NC1C[C@@H](N)C(O)[C@@H](O)[C@@H]1O (single isomer, unassigned) | 30.3 | – |
| NC[C@@H]1O[C@H](O[C@H]2[C@@H](O)[C@H](O[C@@H]3[C@@H](O)[C@H](N)C[C@H](N)[C@H]3O[C@H]3O[C@H](CN)[C@@H](O)[C@H](O)[C@H]3N)O[C@@H]2CO)[C@H](N)[C@@H](O)[C@@H]1O | 77.8 | 100 |
| CN[C@@H]1[C@H](O[C@H]2[C@H](O[C@H]3[C@H](O)[C@@H](O)[C@H](N=C(N)N)[C@@H](O)[C@@H]3N=C(N)N)O[C@@H](C)[C@]2(O)C=O)O[C@@H](CO)[C@H](O)[C@H]1O | 52.5 | 44.3 |
| NC[C@@H]1O[C@@H](O[C@H]2[C@H](O)[C@@H](O[C@H]3O[C@H](CO)[C@@H](O)[C@H](N)[C@H]3O)[C@H](N)C[C@@H]2N)[C@@H](O)[C@H](O)[C@H]1O | 56 | 67.3 |
| NC(Cc1ccccc1)C(=O)NCC1O[C@@H](O[C@@H]2C(N)C[C@@H](N)[C@@H](O)C2O)[C@@H](N)C(O)[C@@H]1O (stereo partly drawn) | 100 | 100 |
| NC[C@H]1OC(O[C@H]2[C@H](O)C(O)[C@H](N)C[C@@H]2N)C(N)[C@@H](O)[C@@H]1O (single isomer, unassigned) | 47.3 | 40 |
